Reference: patent US11684607B2, “Secnidazole for use in the treatment of bacterial vaginosis” (priority 2014, dated 2023)

Assays:
[1] = Safety evaluation (adverse events, vital signs, ECGs, laboratory tests) after single 1 g or 2 g dose of SYM-1219; format: in vivo, human; settings: single 1 g or 2 g oral dose; healthy female subjects
Description: Methods: 28 healthy female subjects (14/group) ages 18-65 years were randomized to receive a single oral dose of either 1 or 2 grams of SYM-1219, mixed into 4 oz. of applesauce. […] Safety was evaluated by recording adverse events, vital signs, ECGs and laboratory tests.

[2] = Safety evaluation of SYM-1219 alone or in combination with EE2/NET; format: in vivo, human; settings: 2 g
Description: Methods: Fifty-four (54) healthy female subjects, ages 18-65, received EE2/NET alone and in combination, where SYM-1219+EE2/NET were co-administered on Day 1 (Group B1; N=27) or SYM-1219 on Day 1 and EE2/NET on Day 2 (Group B2; N=27). Serial blood samples were drawn to measure plasma concentrations of EE2/NET. […] Safety was evaluated by recording of adverse events, vital signs, ECGs and standard laboratory tests.

bacterial vaginosis = experiment: Phase 2 double-blind placebo-controlled study, clinical outcome responder (clinical cure) in women with bacterial vaginosis; format: in vivo, human
Excerpt: (§1) The study was designed in accordance with FDA guidance for pivotal bacterial vaginosis trials with a primary end point clinical cure in the Modified Intent-to-Treat (mITT) population at day 21 to 30 versus placebo (two-sided test at alpha=0.05). Subjects were recruited to the study they presented with the following Amsel criteria: presence of typical discharge. a positive KOH Whiff test vaginal fluid pH greater than or equal to 4.7, and the presence of “clue cells” (epithelial cells with adhering bacteria) on microscopic examination.

[3] = parameters: species or system human; settings: in vivo
Excerpt: as §1

[4] = Single oral dose pharmacokinetics (plasma and urine) of SYM-1219 microgranule formulation in fasted healthy female subjects; settings: for AUC(0-t): AUC0-t; for CL renal: CLr
Description: A non-compartmental analysis was performed and the PK parameters for each treatment group are reported.

[5] = female, human, plasma, po, 1 g, Geometric Mean, 1 gram single oral dose, fasted, N = 14
[6] = female, human, plasma, po, 1 g, Mean, 1 gram single oral dose, fasted, N = 14
[7] = female, human, plasma, po, 1 g, Median, 1 gram single oral dose, fasted, N = 14
[8] = plasma, 1 gram single oral dose, fasted, N = 14
[9] = plasma, 2 grams single oral dose, fasted, N = 14
[10] = urine, 1 gram single oral dose, fasted, N = 14
[11] = urine, 2 grams single oral dose, fasted, N = 14

Cc1ncc([N+](=O)[O-])n1CC(C)O (stereo not drawn) [SYM-1219, 1-(2-hydroxypropyl)-2-methyl-5-nitromidazole]
changes in vital signs, electrocardiogram (ECG) or laboratory parameters [1]: no significant changes
safety and tolerability [1]: safe and well-tolerated
severity and outcome of all adverse events [1]: mild and resolved without sequelae
changes in vital signs, ECG or laboratory parameters [2]: no significant changes
safety and tolerability [2]: safe and well-tolerated
effectiveness in treating bacterial vaginosis (bacterial vaginosis; 2 gram single dose, subjects with 3 or fewer as well as 4 or more episodes in the past 12 months): effective
effectiveness for bacterial vaginosis compared with placebo (bacterial vaginosis; 2 gram single-dose): effective
clinical cure rate (bacterial vaginosis; single 2 g oral dose, 21-30 days after treatment): 67.7%
Acute sinusitis: Events ([3]; female, human): 0 n
Acute sinusitis: Subjects ([3]; female, human): 0 n
Adverse Event: Abdominal pain ([3]; female, human): 0%
Adverse Event: Diarrhea ([3]; female, human): 0%
Adverse Event: Fungal Infection ([3]; female, human): 3%
Adverse Event: Headache ([3]; female, human): 1%
Adverse Event: Metallic/Unusual Taste ([3]; female, human): 1%
Adverse Event: Nausea ([3]; female, human): 1%
Adverse Event: Vulva/Vaginal Irritation ([3]; female, human): 1%
Alanine aminotransferase increased: Events ([3]; female, human): 1 n
Any Adverse Event, Overall: Events ([3]; female, human): 19 n
Aspartate aminotransferase increased: Events ([3]; female, human): 1 n
Candida infection: Events ([3]; female, human): 0 n
Candida infection: Subjects ([3]; female, human): 0 n
Chlamydial infection: Events ([3]; female, human): 1 n
Chromaturia: Events ([3]; female, human): 1 n
Dizziness: Events ([3]; female, human): 1 n
Dysgeusia: Events ([3]; female, human): 1 n
Fungal infection: Events ([3]; female, human): 0 n
Fungal infection: Subjects ([3]; female, human): 0 n
Gastrointestinal disorders, Overall: Events ([3]; female, human): 1 n
Gonorrhoea: Events ([3]; female, human): 1 n
Headache: Events ([3]; female, human): 1 n
Infections and infestations, Overall: Events ([3]; female, human): 7 n
Injury, poisoning and procedural complications, Overall: Events ([3]; female, human): 1 n
Investigations, Overall: Events ([3]; female, human): 2 n
Nausea: Events ([3]; female, human): 1 n
Nervous system disorders, Overall: Events ([3]; female, human): 3 n
Oropharyngeal pain: Events ([3]; female, human): 1 n
Renal and urinary disorders, Overall: Events ([3]; female, human): 1 n
Reproductive system and breast disorders, Overall: Events ([3]; female, human): 3 n
Respiratory, thoracic and mediastinal disorders, Overall: Events ([3]; female, human): 1 n
Surgical and medical procedures, Overall: Events ([3]; female, human): 0 n
Surgical and medical procedures, Overall: Subjects ([3]; female, human): 0 n
Thermal burn: Events ([3]; female, human): 1 n
Tooth abscess: Events ([3]; female, human): 1 n
Tooth extraction: Events ([3]; female, human): 0 n
Tooth extraction: Subjects ([3]; female, human): 0 n
Tooth infection: Events ([3]; female, human): 1 n
Upper respiratory tract infection: Events ([3]; female, human): 0 n
Upper respiratory tract infection: Subjects ([3]; female, human): 0 n
Urinary tract infection: Events ([3]; female, human): 1 n
Vaginal discharge: Events ([3]; female, human): 1 n
Vaginal odor: Events ([3]; female, human): 1 n
Vulvovaginal mycotic infection: Events ([3]; female, human): 2 n
Vulvovaginal pruritus: Events ([3]; female, human): 1 n
tolerability [3]: surprisingly well tolerated
intersubject variability for Cmax and AUC ([4]; 1 g and 2 g doses): < 20 % CV
renal clearance as percentage of the glomerular filtration rate typically found in healthy subjects ([4]; 1 g and 2 g doses): < 5%
Urinary excretion of unchanged SYM-1219, share of the administered dose ([4]; 1 g dose): 13.6%
Urinary excretion of unchanged SYM-1219, share of the administered dose ([4]; 2 g dose): 15.3%
time by which maximum concentrations were achieved ([4]; both dose groups (1 g and 2 g)): approximately 4 hrs.
dose proportionality of pharmacokinetics ([4]; comparing the 1 and 2 g doses): dose proportional
AUC(0-inf) ([4]; female, human, plasma, oral, 1 g, Exposure estimate (AUCinf)): 619 µg·h/mL
AUC(0-inf) ([4]; female, human, plasma, oral, 2 g, Exposure estimate (AUCinf)): 1330 µg·h/mL
Tmax ([4]; female, human, plasma, po, 1 g): 3.06 h
AUC(0-t) [4, 5]: 603 µg·h/mL
AUC(0-t) [4, 6]: 610 µg·h/mL
AUC(0-t) [4, 7]: 587 µg·h/mL
Cmax [4, 5]: 22400 ng/mL
Cmax [4, 6]: 22600 ng/mL
Cmax [4, 7]: 22800 ng/mL
AUC(0-inf) ([4]; female, human, plasma, po, 1 gram, AUC0-∞, Geometric Mean, 1 gram single oral dose, fasted, N = 14): 612 µg·h/mL
AUC(0-inf) ([4]; female, human, plasma, po, 1 gram, AUC0-∞, Mean, 1 gram single oral dose, fasted, N = 14): 619 µg·h/mL
AUC(0-inf) ([4]; female, human, plasma, po, 1 gram, AUC0-∞, Median, 1 gram single oral dose, fasted, N = 14): 595 µg·h/mL
CL renal ([4]; female, human, urine, po, 1 gram, Geometric Mean, 1 gram single oral dose, fasted, N = 14): 3.65 mL/min
CL renal ([4]; female, human, urine, po, 1 gram, Mean, 1 gram single oral dose, fasted, N = 14): 3.74 mL/min
Mean maximum concentration ([4]; plasma, 1 g dose): 22.6 µg/mL
t1/2, Mean [4, 8]: 17.05 h
t1/2, Median [4, 8]: 16.79 h
λz, Mean [4, 8]: 0.04099 h⁻¹
λz, Median [4, 8]: 0.04129 h⁻¹
Mean maximum concentration ([4]; plasma, 2 g dose): 45.4 µg/mL
AUC0-t, Geometric Mean [4, 9]: 1305.35 µg·h/mL
AUC0-t, Mean [4, 9]: 1322.40 µg·h/mL
AUC0-t, Median [4, 9]: 1290.41 µg·h/mL
AUC0-∞, Geometric Mean [4, 9]: 1314.74 µg·h/mL
AUC0-∞, Mean [4, 9]: 1331.63 µg·h/mL
AUC0-∞, Median [4, 9]: 1299.10 µg·h/mL
Cmax, Geometric Mean [4, 9]: 44840 ng/mL
Cmax, Mean [4, 9]: 45430 ng/mL
Cmax, Median [4, 9]: 45050 ng/mL
Tmax, Median [4, 9]: 4.000 h
t1/2, Mean [4, 9]: 16.86 h
t1/2, Median [4, 9]: 17.13 h
λz, Mean [4, 9]: 0.0422 h⁻¹
λz, Median [4, 9]: 0.04047 h⁻¹
% FE, Geometric Mean [4, 10]: 13.403%
% FE, Mean [4, 10]: 13.602%
% FE, Median [4, 10]: 13.981%
Ae0-168, Geometric Mean [4, 10]: 0.134 g
Ae0-168, Mean [4, 10]: 0.136 g
Ae0-168, Median [4, 10]: 0.140 g
CLr, Median [4, 10]: 3.965 mL/min
% FE, Geometric Mean [4, 11]: 14.991%
% FE, Mean [4, 11]: 15.300%
% FE, Median [4, 11]: 14.943%
Ae0-168, Geometric Mean [4, 11]: 0.300 g
Ae0-168, Mean [4, 11]: 0.306 g
Ae0-168, Median [4, 11]: 0.299 g
CLr, Geometric Mean [4, 11]: 3.801 mL/min
CLr, Mean [4, 11]: 3.935 mL/min
CLr, Median [4, 11]: 3.962 mL/min
